Measured values from patent US12139498B1, “Positive allosteric modulators of the muscarinic acetylcholine receptor M4” (Vanderbilt University, priority 2023, dated 2024).
Where two headings read alike, the source gives them in different places.

Assays:
[1] = In vivo pharmacokinetics in cynomolgus monkey; conditions: plasma
Protocol: Compound 70 was tested in several in vivo assays and the pharmacokinetic parameters listed in the following table may be determined from pharmacokinetic studies in rat, dog, or cynomolgus monkey, according to known methods as generally described in the following references: Garrison et al. J. Med. Chem. 2022, 65, 6273-6286; Felts et al. J. Med. Chem 2017, 60, 5072-5085; and Yu et al. J. Med. Chem. 2021, 64, 4709-4729.

[2] = molecular target: T1, Human M4 (Homo sapiens, UniProt P08173); assay: Cellular cAMP Gi HTRF assay (agonist and potentiator modes); assay type: cell-based; design: expressed in transfected cells; host or cells: CHO cells stably expressing human M4; conditions: n = 2
T1 sequence (P08173 1-479): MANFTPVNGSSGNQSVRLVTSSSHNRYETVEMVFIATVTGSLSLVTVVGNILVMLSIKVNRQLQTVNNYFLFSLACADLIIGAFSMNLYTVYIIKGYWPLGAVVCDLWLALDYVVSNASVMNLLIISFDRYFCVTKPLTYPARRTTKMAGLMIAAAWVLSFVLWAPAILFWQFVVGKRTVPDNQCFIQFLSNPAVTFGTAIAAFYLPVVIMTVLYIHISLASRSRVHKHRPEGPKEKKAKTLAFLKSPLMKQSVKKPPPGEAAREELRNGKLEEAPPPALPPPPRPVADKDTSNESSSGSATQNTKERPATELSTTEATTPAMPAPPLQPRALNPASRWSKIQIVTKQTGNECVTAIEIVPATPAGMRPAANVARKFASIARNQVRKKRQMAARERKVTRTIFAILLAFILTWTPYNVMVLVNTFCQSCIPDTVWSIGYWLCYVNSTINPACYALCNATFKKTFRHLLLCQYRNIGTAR
Description: Activation of the M4 receptor leads to the inhibition of cAMP production by coupling to Go proteins. To measure the level of CAMP inhibition by M4 allosteric modulators, a Homogeneous Time-Resolved Fluorescence (HTRF®) CAMP assay was employed using CHO cells stably expressing human or rat M4 receptors. The HTRF CAMP assay is a Time-Resolved Resonance Energy Transfer (TR-FRET) competitive immunoassay. Endogenous intracellular CAMP generated by cells competes with Europium cryptate-labeled cAMP (Europium donor, emission […]) for the binding to a cAMP antibody labeled with d2 (d2-acceptor, emission […]). Thus, the fluorescence emission ratio (665 nm/620 nm) is inversely proportional to the CAMP amount in the cells. Compound-mediated M4 activation results in an increase in HTRF ratio (665 nm/620 nm), indicative of a decrease in intracellular cAMP level. To monitor agonist activity, compounds were added to the M4 cells in the presence of an EC80 concentration of forskolin (adenylyl cyclase activator) which induces a submaximal intracellular cAMP level. To assess potentiator activity, compounds were added to the M4 cells with an EC50 concentration of forskolin in the presence of an EC20 concentration of acetylcholine. This functional assay allows determination of the potency and efficacy of compounds directly activating or potentiating the Gi/o-coupled M4 receptor; representative data are shown in Table 3.
Functional agonist and potentiator activities of compounds were determined by measuring cAMP levels in Chinese Hamster Ovary (CHO) cells stably expressing human or rat M4 muscarinic receptors using an HTRF CAMP Gi/o kit. Cells were maintained in F12 medium containing 10% FBS, 20 mM HEPES, 1× Antibiotic/Antimycotic, and G418 (500 μg/ml) in 37° C. humidified incubators in the presence of 5% CO2. The day before assay, the cells were trypsinized and resuspended in plating medium (growth medium without G418). The cells were plated to white, solid, flat-bottomed, 384 well plates at densities of 4,000 and 6,000 cells/10 μL/well, of human M4 and rat M4 cells, respectively. The cell plates were spun at 100×g for 1 min, then immediately placed in a 37° C. incubator in the presence of 5% CO2 overnight.
The next day, reagents were freshly diluted at a 2× concentration in assay buffer using F12 basal medium or stimulation buffer. All assay buffers contained 500 μM IBMX to block cAMP degradation. Activation of M4 by compounds was examined in cells stimulated with an EC80 concentration of forskolin to induce submaximal intracellular cAMP levels. Forskolin EC80 concentrations were determined from forskolin concentration response curves (CRCs) and ranged from 1.5 to 2.5 μM. […]

Question: For `Cc1c(N2CCc3nc(C4(F)CC4)sc3C2)nc2nn(C)c(=O)n2c1C` [Compound 70, 7-(2-(1-fluorocyclopropyl)-6,7-dihydrothiazolo[5,4-c]pyridin-5(4H)-yl)-2,5,6-trimethyl-[1,2,4]triazolo[4,3-a]pyrimidin-3(2H)-one], which clearance ([1]; read-out: Cyno CLp) is on record?
Answer: 4.9 mL/min/kg

Question: What about the half-life ([1]; read-out: Cyno Elim. t1/2 (converted)) of the same molecule?
Answer: 4.2 h

Question: What about the Vd ([1]; read-out: Cyno Vss) of the same molecule?
Answer: 1.4 L/kg

Question: And the “hM4_cAMP Activity Agonist % ACh Max” value ([2]; agonist mode, EC80 forskolin, no acetylcholine)?
Answer: 81 % ACh Max

Question: What about the EC50 ([2]; agonist mode, EC80 forskolin, no acetylcholine, read-out: hM4_cAMP Activity Agonist EC50) of the same molecule?
Answer: 19 nM

Question: What about the “hM4_cAMP Activity PAM % ACh Max” value ([2]; potentiator mode, forskolin plus EC20 acetylcholine) of the same molecule?
Answer: 74 % ACh Max

Question: What about the EC50 ([2]; potentiator mode, forskolin plus EC20 acetylcholine, read-out: hM4_cAMP Activity PAM EC50) of the same molecule?
Answer: 11 nM
